Experimental data published in ChEMBL document CHEMBL5465560, “Selectivity Literature for EUbOPEN Chemogenomic Library” (2024).

Legend:
[1] = target: Maternal embryonic leucine zipper kinase (Homo sapiens) (UniProt Q14680); test: Selectivity interaction (KinomeScan (DiscoverX)) EUB0000229b MELK; settings: at 10 µM
[2] = target: 5'-AMP-activated protein kinase catalytic subunit alpha-1 (Homo sapiens, UniProt Q13131); test: Selectivity interaction (KinomeScan (DiscoverX)) EUB0000045b PRKAA1
[3] = target: Tyrosine-protein kinase Fgr (Homo sapiens) (UniProt P09769); test: Selectivity interaction (KinomeScan (DiscoverX)) EUB0000045b FGR
[4] = target: T1, Testis-specific serine/threonine-protein kinase 3 (Homo sapiens) (UniProt Q96PN8); test: Selectivity interaction (Kinase panel (Z-LYTE Assay)) EUB0001632a TSSK3; settings: at 10 µM
T1 sequence (whole entry): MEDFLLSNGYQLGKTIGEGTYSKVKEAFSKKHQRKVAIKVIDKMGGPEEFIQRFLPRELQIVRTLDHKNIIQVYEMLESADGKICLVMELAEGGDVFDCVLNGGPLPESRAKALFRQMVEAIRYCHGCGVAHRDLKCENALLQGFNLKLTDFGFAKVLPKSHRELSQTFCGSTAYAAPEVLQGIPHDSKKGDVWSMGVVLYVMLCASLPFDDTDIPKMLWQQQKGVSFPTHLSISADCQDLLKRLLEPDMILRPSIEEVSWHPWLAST

[5] = target: Protein arginine N-methyltransferase 8 (Homo sapiens, UniProt Q9NR22); test: Selectivity interaction (Methyltransferase screen (radiometric assays, panel of 8 PRMTs, 21 protein lysine methyltransferases, 3 DNA methyltransferases, and one RNA methyltransferase)) EUB0000271b PRMT8
[6] = target: T2, Serine/threonine-protein kinase TAO3 (Homo sapiens) (UniProt Q9H2K8); test: Selectivity interaction (KinomeScan (DiscoverX)) EUB0001049a TAOK3; settings: at 1 µM
T2 sequence (whole entry): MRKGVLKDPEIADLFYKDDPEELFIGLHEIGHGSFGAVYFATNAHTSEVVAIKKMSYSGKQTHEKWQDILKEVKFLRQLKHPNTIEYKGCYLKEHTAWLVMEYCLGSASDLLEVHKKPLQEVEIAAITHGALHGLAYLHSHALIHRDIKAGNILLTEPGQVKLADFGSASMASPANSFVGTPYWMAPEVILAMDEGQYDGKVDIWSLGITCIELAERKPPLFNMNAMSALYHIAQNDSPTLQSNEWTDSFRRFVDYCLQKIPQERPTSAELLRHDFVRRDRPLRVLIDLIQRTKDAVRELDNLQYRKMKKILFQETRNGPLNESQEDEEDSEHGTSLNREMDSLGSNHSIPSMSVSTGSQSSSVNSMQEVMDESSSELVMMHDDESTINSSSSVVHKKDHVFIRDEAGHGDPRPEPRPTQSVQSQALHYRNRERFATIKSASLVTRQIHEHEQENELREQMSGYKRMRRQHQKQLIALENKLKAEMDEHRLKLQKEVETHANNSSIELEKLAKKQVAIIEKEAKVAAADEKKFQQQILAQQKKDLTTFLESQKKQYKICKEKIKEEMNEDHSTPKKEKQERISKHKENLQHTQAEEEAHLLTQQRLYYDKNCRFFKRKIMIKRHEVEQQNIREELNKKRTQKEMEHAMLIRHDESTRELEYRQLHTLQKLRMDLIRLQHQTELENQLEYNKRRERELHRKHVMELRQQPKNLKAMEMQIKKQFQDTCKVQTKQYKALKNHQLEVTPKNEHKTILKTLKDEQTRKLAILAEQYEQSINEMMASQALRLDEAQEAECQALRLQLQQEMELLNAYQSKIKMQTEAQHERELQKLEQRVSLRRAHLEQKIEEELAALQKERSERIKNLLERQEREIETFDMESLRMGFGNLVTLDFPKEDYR

[7] = target: MAP/microtubule affinity-regulating kinase 3 (Homo sapiens) (UniProt P27448); test: Selectivity interaction (KinomeScan (DiscoverX)) EUB0001049a MARK3; settings: at 1 µM
[8] = target: Vascular endothelial growth factor receptor 2 (Homo sapiens, UniProt P35968); test: Selectivity interaction (Kinase panel (Eurofins)) EUB0001564a KDR; settings: at 1 µM
[9] = target: T3, Cyclin-dependent kinase 11A (Homo sapiens) (UniProt Q9UQ88); test: Selectivity interaction (ActivX KiNativ screen (ex vivo kinase selectivity in human PBMCs)) EUB0001619a CDK11A; assay type: cell-based; settings: PBMC, at 1 µM
T3 sequence (whole entry): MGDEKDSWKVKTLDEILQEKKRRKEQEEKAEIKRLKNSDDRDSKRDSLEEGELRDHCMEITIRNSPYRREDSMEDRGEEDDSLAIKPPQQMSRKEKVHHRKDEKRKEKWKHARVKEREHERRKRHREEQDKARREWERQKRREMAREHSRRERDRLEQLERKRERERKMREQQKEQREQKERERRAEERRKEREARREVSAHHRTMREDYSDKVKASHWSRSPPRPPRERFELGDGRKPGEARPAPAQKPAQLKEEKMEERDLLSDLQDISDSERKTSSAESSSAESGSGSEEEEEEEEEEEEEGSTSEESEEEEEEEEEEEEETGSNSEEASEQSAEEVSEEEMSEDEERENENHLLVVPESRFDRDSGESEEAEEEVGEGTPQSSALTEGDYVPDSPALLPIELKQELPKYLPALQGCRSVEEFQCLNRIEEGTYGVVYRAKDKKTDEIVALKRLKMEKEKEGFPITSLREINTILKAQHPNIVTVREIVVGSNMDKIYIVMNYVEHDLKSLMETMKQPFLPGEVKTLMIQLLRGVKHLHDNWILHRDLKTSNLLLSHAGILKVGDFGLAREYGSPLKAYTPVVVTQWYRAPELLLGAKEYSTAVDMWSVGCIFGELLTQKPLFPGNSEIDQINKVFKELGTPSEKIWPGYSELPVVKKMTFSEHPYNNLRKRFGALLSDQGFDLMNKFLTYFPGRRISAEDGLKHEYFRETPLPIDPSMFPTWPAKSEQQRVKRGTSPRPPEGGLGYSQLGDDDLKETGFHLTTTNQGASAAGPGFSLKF

[10] = target: T2, Serine/threonine-protein kinase TAO3 (Homo sapiens); test: Selectivity interaction (ActivX KiNativ screen (ex vivo kinase selectivity in human PBMCs)) EUB0001619a TAOK3; assay type: cell-based; settings: PBMC, at 1 µM
[11] = target: Serine/threonine-protein kinase ATR (Homo sapiens) (UniProt Q13535); test: Selectivity interaction (ActivX KiNativ screen (kinase selectivity in THP-1 cell lysates)) EUB0000639a ATR; assay type: subcellular; settings: lysate
[12] = target: Mitogen-activated protein kinase 9 (Homo sapiens, UniProt P45984); test: Selectivity interaction (ActivX KiNativ screen (kinase selectivity in THP-1 cell lysates)) EUB0000639a MAPK9; assay type: subcellular; settings: lysate, at 0.2 µM
[13] = target: TRAF2 and NCK-interacting protein kinase (Homo sapiens) (UniProt Q9UKE5); settings: at 10 µM

Serine/threonine-protein kinase ATR (Homo sapiens), sequence (Q13535 whole entry, looked up): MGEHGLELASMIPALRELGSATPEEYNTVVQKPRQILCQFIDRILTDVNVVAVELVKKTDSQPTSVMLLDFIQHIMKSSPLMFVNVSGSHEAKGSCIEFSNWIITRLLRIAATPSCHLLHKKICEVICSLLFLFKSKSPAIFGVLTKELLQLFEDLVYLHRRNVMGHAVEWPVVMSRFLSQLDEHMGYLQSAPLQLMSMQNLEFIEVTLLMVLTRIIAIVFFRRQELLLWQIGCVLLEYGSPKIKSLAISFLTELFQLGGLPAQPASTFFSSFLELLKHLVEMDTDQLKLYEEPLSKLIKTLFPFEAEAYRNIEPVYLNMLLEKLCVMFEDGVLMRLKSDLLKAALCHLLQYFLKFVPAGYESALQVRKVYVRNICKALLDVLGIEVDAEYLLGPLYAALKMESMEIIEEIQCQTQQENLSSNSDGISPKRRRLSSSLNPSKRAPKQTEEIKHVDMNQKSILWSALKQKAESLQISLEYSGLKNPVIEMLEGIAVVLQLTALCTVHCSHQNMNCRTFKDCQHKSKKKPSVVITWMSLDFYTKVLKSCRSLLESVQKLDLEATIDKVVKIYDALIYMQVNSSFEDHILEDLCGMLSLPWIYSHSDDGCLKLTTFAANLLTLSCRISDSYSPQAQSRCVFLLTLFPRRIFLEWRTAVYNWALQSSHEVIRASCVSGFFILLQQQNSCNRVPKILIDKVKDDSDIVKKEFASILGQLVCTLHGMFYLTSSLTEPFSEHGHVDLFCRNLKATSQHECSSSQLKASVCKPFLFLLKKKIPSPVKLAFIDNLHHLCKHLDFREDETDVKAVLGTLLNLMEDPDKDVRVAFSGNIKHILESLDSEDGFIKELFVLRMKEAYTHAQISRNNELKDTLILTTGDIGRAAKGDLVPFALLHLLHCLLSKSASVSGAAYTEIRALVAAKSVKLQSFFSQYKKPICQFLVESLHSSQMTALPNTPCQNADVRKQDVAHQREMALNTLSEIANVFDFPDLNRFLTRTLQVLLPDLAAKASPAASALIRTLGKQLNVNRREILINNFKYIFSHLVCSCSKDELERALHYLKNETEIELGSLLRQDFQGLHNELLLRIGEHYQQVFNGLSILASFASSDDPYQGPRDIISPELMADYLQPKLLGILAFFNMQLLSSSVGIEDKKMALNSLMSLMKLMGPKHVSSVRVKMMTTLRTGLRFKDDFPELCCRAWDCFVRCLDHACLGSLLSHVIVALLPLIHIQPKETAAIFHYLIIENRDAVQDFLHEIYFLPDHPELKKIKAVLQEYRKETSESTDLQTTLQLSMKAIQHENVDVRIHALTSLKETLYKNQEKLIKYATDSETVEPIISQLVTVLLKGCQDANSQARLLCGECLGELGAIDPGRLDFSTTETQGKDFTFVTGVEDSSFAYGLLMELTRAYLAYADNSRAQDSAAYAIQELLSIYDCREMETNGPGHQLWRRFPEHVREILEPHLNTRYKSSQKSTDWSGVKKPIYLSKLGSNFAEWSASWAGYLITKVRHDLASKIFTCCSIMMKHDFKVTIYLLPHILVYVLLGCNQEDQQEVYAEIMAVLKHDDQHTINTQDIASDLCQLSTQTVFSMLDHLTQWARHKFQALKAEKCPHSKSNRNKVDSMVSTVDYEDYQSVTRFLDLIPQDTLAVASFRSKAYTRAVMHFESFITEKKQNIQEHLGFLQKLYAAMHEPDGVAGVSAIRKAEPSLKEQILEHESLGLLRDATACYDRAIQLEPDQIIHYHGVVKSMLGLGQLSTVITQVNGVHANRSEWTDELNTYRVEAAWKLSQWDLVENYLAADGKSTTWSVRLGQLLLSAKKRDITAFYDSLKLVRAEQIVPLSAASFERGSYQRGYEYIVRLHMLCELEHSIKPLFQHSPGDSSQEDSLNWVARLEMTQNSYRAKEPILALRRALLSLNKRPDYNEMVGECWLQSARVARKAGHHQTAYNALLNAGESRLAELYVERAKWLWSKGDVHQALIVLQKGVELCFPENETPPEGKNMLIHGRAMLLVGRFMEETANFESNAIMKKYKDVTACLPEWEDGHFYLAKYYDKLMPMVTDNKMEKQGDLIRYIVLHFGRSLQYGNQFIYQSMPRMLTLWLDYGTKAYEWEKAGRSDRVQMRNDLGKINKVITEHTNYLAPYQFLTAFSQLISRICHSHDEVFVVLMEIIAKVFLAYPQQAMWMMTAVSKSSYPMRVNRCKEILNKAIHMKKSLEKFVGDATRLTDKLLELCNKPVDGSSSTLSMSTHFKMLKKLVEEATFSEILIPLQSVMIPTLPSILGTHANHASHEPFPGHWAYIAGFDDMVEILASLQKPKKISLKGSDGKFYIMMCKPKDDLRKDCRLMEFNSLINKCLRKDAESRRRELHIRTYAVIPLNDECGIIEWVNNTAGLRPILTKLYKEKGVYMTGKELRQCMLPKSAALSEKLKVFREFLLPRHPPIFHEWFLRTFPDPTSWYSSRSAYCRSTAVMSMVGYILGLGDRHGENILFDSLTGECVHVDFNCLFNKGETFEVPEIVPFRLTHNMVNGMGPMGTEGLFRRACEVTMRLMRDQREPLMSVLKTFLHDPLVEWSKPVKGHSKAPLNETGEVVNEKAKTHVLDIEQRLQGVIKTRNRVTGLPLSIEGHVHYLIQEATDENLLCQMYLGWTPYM
Tyrosine-protein kinase Fgr (Homo sapiens), sequence (P09769 2-529 limits assumed): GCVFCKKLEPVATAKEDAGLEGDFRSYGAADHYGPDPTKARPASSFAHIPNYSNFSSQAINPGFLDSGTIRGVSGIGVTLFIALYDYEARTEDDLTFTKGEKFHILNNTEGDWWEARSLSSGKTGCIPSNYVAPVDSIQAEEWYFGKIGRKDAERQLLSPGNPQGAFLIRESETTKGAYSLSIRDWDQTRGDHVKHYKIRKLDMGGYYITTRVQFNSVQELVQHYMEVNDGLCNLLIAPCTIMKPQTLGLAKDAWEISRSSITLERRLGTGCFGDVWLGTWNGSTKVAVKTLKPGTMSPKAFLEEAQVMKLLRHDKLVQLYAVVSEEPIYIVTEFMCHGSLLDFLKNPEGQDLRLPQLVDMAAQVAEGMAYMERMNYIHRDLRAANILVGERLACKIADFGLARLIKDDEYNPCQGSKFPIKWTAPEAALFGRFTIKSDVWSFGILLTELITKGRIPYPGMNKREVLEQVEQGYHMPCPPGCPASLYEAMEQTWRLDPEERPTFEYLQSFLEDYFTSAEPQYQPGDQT
5'-AMP-activated protein kinase catalytic subunit alpha-1, sequence (Q13131 whole entry, looked up): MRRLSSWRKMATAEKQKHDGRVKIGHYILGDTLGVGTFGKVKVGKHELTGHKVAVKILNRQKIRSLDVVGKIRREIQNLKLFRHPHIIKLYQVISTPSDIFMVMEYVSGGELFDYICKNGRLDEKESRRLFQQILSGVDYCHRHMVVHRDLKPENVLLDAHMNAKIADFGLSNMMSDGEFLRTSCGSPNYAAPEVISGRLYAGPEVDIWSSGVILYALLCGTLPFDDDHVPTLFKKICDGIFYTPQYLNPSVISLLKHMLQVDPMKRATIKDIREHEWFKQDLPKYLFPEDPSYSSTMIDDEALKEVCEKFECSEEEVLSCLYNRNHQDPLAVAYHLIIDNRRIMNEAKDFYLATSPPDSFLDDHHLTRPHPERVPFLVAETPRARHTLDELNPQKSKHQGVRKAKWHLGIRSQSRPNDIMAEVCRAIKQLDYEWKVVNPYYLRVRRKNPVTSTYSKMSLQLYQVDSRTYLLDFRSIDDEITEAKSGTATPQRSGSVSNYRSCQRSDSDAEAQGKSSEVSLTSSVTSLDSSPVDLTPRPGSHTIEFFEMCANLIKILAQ
Protein arginine N-methyltransferase 8, sequence (Q9NR22 2-394 limits assumed): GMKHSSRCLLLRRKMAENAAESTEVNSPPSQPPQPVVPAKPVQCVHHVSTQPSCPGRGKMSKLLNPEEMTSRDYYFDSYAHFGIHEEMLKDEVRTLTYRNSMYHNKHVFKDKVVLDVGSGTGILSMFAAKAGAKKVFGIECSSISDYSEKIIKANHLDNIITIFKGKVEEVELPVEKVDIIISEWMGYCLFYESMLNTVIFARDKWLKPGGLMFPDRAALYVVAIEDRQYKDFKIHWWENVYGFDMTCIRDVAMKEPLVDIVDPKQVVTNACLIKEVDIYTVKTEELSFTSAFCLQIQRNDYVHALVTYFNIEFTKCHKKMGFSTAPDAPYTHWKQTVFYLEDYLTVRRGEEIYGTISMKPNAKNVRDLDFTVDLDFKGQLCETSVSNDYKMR
Mitogen-activated protein kinase 9, sequence (P45984 whole entry, looked up): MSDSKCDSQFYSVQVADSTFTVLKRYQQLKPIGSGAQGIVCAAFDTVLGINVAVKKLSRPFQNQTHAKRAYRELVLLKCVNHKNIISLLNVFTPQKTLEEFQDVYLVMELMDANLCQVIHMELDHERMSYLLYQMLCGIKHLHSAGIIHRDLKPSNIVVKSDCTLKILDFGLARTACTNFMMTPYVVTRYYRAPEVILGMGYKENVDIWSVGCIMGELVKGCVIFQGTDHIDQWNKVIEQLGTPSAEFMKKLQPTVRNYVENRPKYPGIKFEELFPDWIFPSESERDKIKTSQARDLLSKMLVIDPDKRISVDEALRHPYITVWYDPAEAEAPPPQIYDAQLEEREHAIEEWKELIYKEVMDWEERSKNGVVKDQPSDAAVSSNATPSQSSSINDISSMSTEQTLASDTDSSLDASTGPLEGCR

COc1cc(N(C)c2ccnc3ccc(C(F)(F)F)cc23)cc(OC)c1OC
% binding [1]: 91%

C=CC(=O)Nc1cc(-n2c(=O)ccc3cnc4ccc(-c5ccc(NS(C)(=O)=O)cc5)cc4c32)ccc1C
% of control ([2]; at 1 µM): 100% | % of control ([2]; at 10 µM): 100% | % of control ([3]; at 1 µM): 72% | % of control ([3]; at 10 µM): 79%

Cn1cc(-n2cnc3c(NCc4nc5cc(Cl)c(Cl)cc5[nH]4)nc(N4CCOCC4)nc32)cn1
% of control [4]: 4.44%

Cc1cc(C)cc([C@@H]2c3cc(C)ccc3NC(=O)CN2C(=O)c2ccc(Br)s2)c1
% of activity ([5]; at 1 µM): 101% | % of activity ([5]; at 10 µM): 96%

COc1cc(Nc2nc(C)cc(-c3cnn4nc(OC)ccc34)n2)cc(C(F)(F)F)c1
% of control [6]: 75% | % of control [7]: 77%

CC[C@@H](Nc1c(C#N)c(-c2ccc(-c3cccc(C)c3F)cc2)nc2cnccc12)C(=O)O [BAY-091]
% of inhibition [8]: 50.1%

N#Cc1cccc(-c2c[nH]c3ncnc(N4CCOCC4)c23)c1
% of inhibition [9]: 11% | % of inhibition [10]: 6%

CC[C@@H]1[C@H](F)C(=O)N[C@@H]1COc1nccc2cc(C(N)=O)c(OC)cc12 [ZIMLOVISERTIB]
% of inhibition ([11]; at 0.01 µM): 14.9% | % of inhibition ([11]; at 0.04 µM): 0% | % of inhibition ([11]; at 0.2 µM): -4.2% | % of inhibition ([11]; at 1 µM): 14.1% | % of inhibition ([11]; at 5 µM): 18.6% | % of inhibition [12]: -0.3%

CCN(CC)CCCCNc1ncc2cc(-c3cc(OC)cc(OC)c3)c(NC(=O)NC(C)(C)C)nc2n1
% of control [13]: 100%
